Reference: PMC11863921 (BMC Biology, 2025)
“Also recorded” adds a separate entry of the source.

Target: T1, AsolRXFP/LGR3 (Acanthaster planci, UniProt A0A8B7XXQ8)
T1 sequence (A0A8B7XXQ8 1-847): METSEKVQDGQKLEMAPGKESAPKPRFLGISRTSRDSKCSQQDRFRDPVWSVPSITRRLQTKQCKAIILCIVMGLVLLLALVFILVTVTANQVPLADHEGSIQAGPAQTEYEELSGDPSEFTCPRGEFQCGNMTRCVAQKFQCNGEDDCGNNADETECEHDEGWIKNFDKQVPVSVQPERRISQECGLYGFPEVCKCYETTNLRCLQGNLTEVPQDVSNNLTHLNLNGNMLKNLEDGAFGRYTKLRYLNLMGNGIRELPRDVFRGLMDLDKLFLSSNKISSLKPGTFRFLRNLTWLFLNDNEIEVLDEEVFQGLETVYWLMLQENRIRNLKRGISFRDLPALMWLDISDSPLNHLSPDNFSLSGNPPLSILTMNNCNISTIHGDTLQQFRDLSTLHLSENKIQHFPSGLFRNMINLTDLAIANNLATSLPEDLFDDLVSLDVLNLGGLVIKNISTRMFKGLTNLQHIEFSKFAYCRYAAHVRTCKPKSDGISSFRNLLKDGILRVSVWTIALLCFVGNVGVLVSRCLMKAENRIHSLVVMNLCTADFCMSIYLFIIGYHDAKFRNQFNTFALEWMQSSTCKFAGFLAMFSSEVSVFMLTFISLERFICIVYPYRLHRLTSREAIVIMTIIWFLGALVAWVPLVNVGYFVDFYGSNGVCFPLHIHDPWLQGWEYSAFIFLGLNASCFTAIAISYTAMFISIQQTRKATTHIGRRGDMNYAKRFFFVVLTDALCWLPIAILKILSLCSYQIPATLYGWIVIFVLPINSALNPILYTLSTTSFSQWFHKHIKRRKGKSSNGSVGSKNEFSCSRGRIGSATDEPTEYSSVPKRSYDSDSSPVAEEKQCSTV
Test: CRE reporter gene assay in CHO cells stably expressing AsolRXFP/LGR3
Assay type: cell-based, A. cf. solaris
Settings: for cAMP activity / CRE reporter gene activation: increasing concentrations
Procedure: Human embryonic kidney (HEK) 293T cells were grown in complete Dulbecco’s modified Eagle medium (DMEM; Gibco) and Chinese hamster ovary (CHO) cells in complete DMEM/F12 (Gibco). Media was supplemented with 10% fetal bovine serum, 1% penicillin/streptomycin, and 1% L‐glutamine (complete media; All from Gibco). HEK-293T cells were transfected with LipofectAMINE 2000 (Invitrogen) and CHO cells with CHO TransIT and CHO-Mojo (Mirus), both according to the manufacturer’s instructions.
CHO and HEK293T cells stably expressing AsolRXFP/LGR3 were generated by lentiviral transduction. HEK293T cells were plated in 10 cm dishes for transfection with pLenti X1-Ef1α-COT-RXFP-like 2-IRES-GFP along with the lentiviral packaging and envelope plasmids pMDL, pRSV‐Rev, and pCMV‐VSV‐G, using Lipofectamine 2000. The following day, media containing lentivirus was harvested and filtered through a 0.45 μm syringe filter. Fresh CHO and HEK293T cells in 10 cm plates were transduced by replacing the cell culture media with the filtered media containing lentivirus, mixed with 4 μg/mL hexadimethrine bromide (Polybrene) to increase transduction efficiency. Three rounds of transduction were performed over 32 h, before cells were allowed to recover for three days in complete media. Transduced cells were sorted from non-transduced cells using the GFP reporter by fluorescence-activated cell sorting (FACS), using a Becton Dickinson FACSAria III as previously described. Single, live cells with low GFP expression were selected to represent low AsolRXFP/LGR3 expression and were subsequently grown to confluency in a T175 flask and cryopreserved.
The ability of the A. cf. solaris receptors to respond to A. cf. solaris RGP1 and RGP2 peptides was tested using a pCRE β-galactosidase reporter gene assay in CHO cells stably expressing AsolRXFP/LGR3 or HEK-293T cells transfected with AsolRXFP/LGR4 (long) or AsolRXFP/LGR4 (short), as described in detail previously. Importantly, the pCRE β-galactosidase reporter gene assay measures both Gs and Gq activation downstream of GPCR activation by monitoring CREB-mediated gene transcription. Cells were seeded in 96 well plates and were left to grow overnight at 37 °C in an incubator with 5% CO2. The next day the cells were transfected with different amounts of the pCRE reporter gene DNA [57] and/or pcDNA3.1 receptor constructs, as described above, and were left to grow overnight in an incubator. Triplicate wells in each plate were transfected with the equivalent amount of pCRE reporter gene DNA and pcDNA3.1 without a receptor-encoding insert as the background CRE activity control. The next day cells were exposed in triplicate wells to increasing concentrations of peptides diluted in media for 6 h at 37 °C in an incubator. Triplicate parallel wells contained 5 µM forskolin and blank media as positive and negative controls, respectively. At the end of the incubation period, the media was aspirated, and the plate was stored at − 80 °C until development. Plates were thawed for the development of β-galactosidase activity, as described previously, with absorbance being read at 570 nm on an Epoch 2 microplate reader. The data were analyzed as the percentage of the response induced by 5 µM forskolin and pooled followed by fitting to a three-parameter sigmoidal dose–response curve using GraphPad Prism 10. Experiments were performed at least three times with triplicate determinations in each assay (Additional file 17: Dataset S10).

| Substance | efficacy (Emax) (CHO-AsolRXFP/LGR3 cells, 5 µM forskolin = reference, n = 6) [% forskolin response] | cAMP activity / CRE reporter gene activation (CHO-AsolRXFP/LGR3 cells) | relative potency/efficacy as ligand for AsolRXFP/LGR3 (compared with RGP1) |
| --- | --- | --- | --- |
| Acanthaster cf. solaris Relaxin-like gonad-stimulating peptide 1 [AsolRGP1] | 38.6 ± 6.9 | concentration-dependent cAMP activity; also recorded: dose-dependent increase in CRE reporter gene activation | – |
| Acanthaster cf. solaris Relaxin-like gonad-stimulating peptide 2 [AsolRGP2] | – | only at high concentrations; also recorded: small but significant response but no clear dose–response | much lower than that of RGP1 |
